Measured values from US9464291B2, “Methods and compositions for the treatment of cancer” (University of South Alabama, priority 2012, dated 2016).
“Also recorded” adds a separate entry of the source.

How the values were obtained:
[1] = system: MC3T3-E1 cells; experiment: Osteoblast differentiation (ALP) and mineralization (Alizarin Red S), MC3T3-E1; assay type: cell-based, murine; conditions: 100 nM ligand in DM
Method: The procedure for differentiation of osteoblasts was standardized. MC3T3-E1 cells were cultured in the presence of ascorbic acid and β-glycerophosphate. Mineralization was examined by Alizarin RedS staining (Ueno, A., et al. (2001). Matrix Biol 20, 347-355; Lee, Y. K., et al. (2004). J Biomed Mater Res A 69, 188-195; Duarte, W. R., et al. (2003). S100A4: a novel negative regulator of mineralization and osteoblast differentiation. J Bone Miner Res 18, 493-501). Referring to FIG. 13 and FIG. 14, differentiation was evident by intense red staining in presence of differentiation medium and in differentiation medium containing SHH compared to the control, growth medium. This was also evident in the intensity of absorbance and in the numbers of mineralized nodules formed (counted under the microscope) (FIG. 15).
Induction of osteoblastic and osteoclastic differentiation—In order to test the effect of conditioned medium from the tumor cells on osteoblast differentiation, a double-strength differentiation medium (DM) was formulated for MC3T3 E1 Sc-14 cells. […] Osteoblast differentiation was assessed by alkaline phosphatase (ALP) activity assay in the perspective of total phosphatase. The functional assessment of osteoblast mineralization was quantified by staining with Alizarin Red S and scoring the number of mineralized nodules.

[2] = system: OPN promoter; experiment: OPN promoter luciferase reporter assay in melanoma cell lines; assay type: cell-based, human; conditions: MDA-MB-435, MCC012A, MCC012F
Method: Empty pGL3 vector was used as control. Hedgehog ligands were added to the well 6 h prior to harvesting the cells (approximately 33 hr of initiation of transfection) for assay. Readings were normalized to total protein content. Each parameter was studied in triplicate and the experiment repeated at least 3 times. The data are represented as percent luciferase activity, which was derived as a percent of the relative light units in treated groups compared with the untreated groups.

[3] = system: ERCC1, XPD, XRCC1; experiment: ERCC1, XPD, XRCC1 mRNA / protein levels in A2780-CP70 cells; assay type: cell-based, human; conditions: A2780-CP70
[4] = system: OPN; experiment: Secreted OPN protein, immunoblot of conditioned medium, MDA-MB-435; assay type: cell-based, human; conditions: 10 μM and 20 μM cyclopamine
Method: Stable vector only and non-targeting (scrambled control) transfectants were also generated. Stable transfectants were selected on medium supplemented with 500 μg/ml Geneticin (Invitrogen). The four GLI1-knocked down clones chosen were based on the extent of GLI1 knockdown and were termed KO1, KO2, KO3, and KO4. The expression of OPN was restored in the KO1 cells by transfecting with pcDNA3.1-OPN. A corresponding vector-only transfectant was also generated. Transfectants were selected on medium containing Geneticin (500 μg/ml) and hygromycin (750 μg/ml). Serum-free conditioned medium harvested from approximately 3.0×10^6 cells after 24 hr was assayed for OPN by immunoblotting.
Western Blotting Analysis—Whole cell lysates were collected in Nonidet P-40 buffer (150 mM NaCl, 50 mM Tris, 1% Nonidet P-40). Isolation of cytosolic and nuclear fractions was done as previously reported (15). Total protein (30 μg) was resolved by SDS-PAGE gel and transferred to polyvinylidene difluoride membranes. […] Secreted OPN was assessed by loading an equal quantity of protein from the serum-free conditioned medium. […]

[5] = system: c-fos; experiment: c-fos mRNA (semi-quantitative PCR) and protein in A2780-CP70 cells; assay type: cell-based, human
[6] = system: OPN, MMP9, Cathepsin K (CTSK); experiment: OPN, MMP9 and CTSK expression by osteoclasts; assay type: cell-based, murine; conditions: DM supplemented with cyclopamine
Source text: Quantitative RT-PCR (qRT-PCR)-cDNA was generated using High Capacity Reverse Transcriptase Kit (Applied Biosystems, Foster City, Calif.). […] All reactions were done in triplicate.

[7] = system: c-jun; experiment: c-jun mRNA (semi-quantitative PCR) and protein (Western blot) in A2780-CP70 cells; assay type: cell-based, human
Method: Controls included α-tubulin and histone deacetylase 3. C-jun antibody recognizes non-phosphorylated c-jun protein.
c-jun and c-fos mRNA expression was examined in A2780-CP70 cells transfected with anti-GLI1 shRNA construct at 6 hr, 24 hr, 48 hr, and 72 hr post-transfection using semi-quantative PCR analysis (FIG. 41).
A2780-CP70 cells were transfected with an IC50 dose of anti-Gli1 shRNA (treated) construct or vector (control). Total intracellular c-jun mRNA and c-jun protein was measured at 6 hr, 24 hr, 48 hr, and 72 hr.
C-jun mRNA and protein levels were further examined in cisplatin-resistant A2780-CP70 cells treated with an IC50 dose of anti-Gli1 shRNA. FIG. 78 depicts mRNA levels (panel A) and protein levels (panel B) in cells at 6, 24, 48, and 72 hours post-treatment.

Row | Molecule | osteoblast differentiation (ALP activity) [1] | numbers of mineralized nodules ([1]; 14 days) | OPN promoter activity [2] | ERCC1, XPD, XRCC1 mRNA upregulation over baseline ([3]; IC50 cyclopamine 24 hours, then 30 μM cisplatin 1 hour (data not shown)) | time of highest ERCC1, XPD, XRCC1 mRNA levels after cisplatin exposure ([3]; cyclopamine pretreatment vs cisplatin alone) [h] | ERCC1, XPD, XRCC1 mRNA levels after agent alone ([3]; levels associated with 50% cell killing, 6-72 hr) | OPN protein in the secretome [4] | c-fos mRNA peak level ([5]; 70 μM cyclopamine, vs 0 hr) [fold] | c-fos protein level ([5]; A2780-CP70, cyclopamine-treated) | expression of OPN, MMP9 and CTSK by the osteoclasts [6] | c-jun mRNA increase ([7]; 70 μM cyclopamine, 6 hr vs 0 hr) [fold] | c-jun mRNA increase (peak) ([7]; 70 μM cyclopamine, 24 hr vs 0 hr) [fold] | time of peak c-jun level ([7]; A2780-CP70, IC50 dose of agent)
1 | SHH: recombinant Sonic hedgehog ligand (R & D Systems) | stimulated differentiation | significant increase (p<0.05) | up-regulated the promoter activity of OPN |  |  |  |  |  |  |  |  |  | 
2 | CC1=C2C[C@H]3[C@@H](CC=C4C[C@@H](O)CC[C@@]43C)[C@@H]2CC[C@]12O[C@@H]1C[C@H](C)CN[C@H]1[C@H]2C [cyclopamine] |  |  |  | approximately 2 fold | 24 | no increase; also recorded: no detected effect | decreased levels of OPN protein | 27 | increased substantially at 6 hr | significantly reduces the expression of OPN, MMP9 and CTSK | 3 | 13 | about 48 hours
